Source: US9409952B2, “Peptide-compound cyclization method” (Chugai Seiyaku Kabushiki Kaisha, priority 2011, dated 2016)
Starred links: 1 amine or outer side, 2 acyl side, 3 side chain; linkers in the order of their positions; H or OH if unused. Positions of bridges follow the written chain, without caps; N, C: chain ends. Non-standard residues stand in square brackets, D forms with d. Residues, ends and D or L forms follow the SMILES beside them. ξ: configuration not given here. *: point of attachment. Cys(O)(CH2CO) = O=C([C@H](C[S+]([O-])CC(=O)[*:3])N[*:1])[*:2]; NMeF = CN[C@@H](Cc1ccccc1)C(=O)O; NMeI = CC[C@H](C)[C@H](NC)C(=O)O; Cha = N[C@@H](CC1CCCCC1)C(=O)O; NMeL = CN[C@@H](CC(C)C)C(=O)O; Thr(3ξ) = CC(O)[C@H](N)C(=O)O; NMeA = CN[C@@H](C)C(=O)O; Piperidide = C1CCN(*)CC1; {Puro} = puromycin; ξC = NC(CS)C(=O)O; Sar = CNCC(=O)O; tBu = CC(C)(C)*

Columns and labels:
[1] = Serum stability test in mouse serum; format: in vitro ADME; conditions: both sexes, pH 7.4, two hours, read-out: Serum stability t1/2 (Mouse)
Protocol: (§1) The obtained compound was metabolically reacted at a concentration of 2 uM with mouse serum (male/female mixed, Valley Biomedical, USA) (adjusted to pH 7.4 with 33.5 mM HEPES buffer) for two hours. Deproteinization treatment with acetonitrile was provided over time, the amount of the remaining unchanged compound was analyzed using LC/MS, and the metabolic half-life (t1/2) was calculated. A microsome solution prepared at 0.5 mg protein/mL from mouse hepatic microsome and small intestinal microsome (male, XENOTECH, USA) using 100 mM phosphate buffer (pH 7.4) was metabolically reacted with the compound at a concentration of 1 uM for 30 minutes in the presence or absence of NADPH. Deproteinization treatment with acetonitrile was provided over time, the amount of the remaining unchanged compound was analyzed using LC/MS, and the hepatic-intrinsic clearance (CLh, int) and the small intestinal-intrinsic clearance (CLg, int) were calculated (Table 7). Such peptides were sufficiently slowly metabolized by hydrolysis with peptidases or the like in mouse sera and microsomes, contrary to peptides composed of natural amino acids having low lipophilicity.

[2] = Metabolic stability in mouse hepatic microsome; format: in vitro ADME; conditions: for Hepatic Microsome CLh, int (Mouse) In the absence of NADPH: without NADPH; for microsomal CLint at 1 uM: male, liver microsomes, pH 7.4; for Mouse Hepatic Microsome CLh, int: Table 9, thioether versus sulfoxide
Protocol: as §1
(§2) Metabolic stability tests were carried out in the same manner as shown in 2-1.

[3] = Metabolic stability in mouse small intestinal microsome; format: in vitro ADME; conditions: for Intestinal Microsome CLg, int Mouse: Table 8, mouse
Protocol: as §1, §2

[4] = Metabolic stability in human hepatic microsome; format: in vitro ADME; conditions: for microsomal CLint at 1 uM: human, microsomes, pH 7.4, Hepatic Microsome CLhint Human
[5] = 2 h, pH 7.1
[6] = Identification of the metabolic site in mouse liver microsome (LC/MS); format: in vitro ADME; conditions: 10 uM, mouse liver microsome 0.5 mg protein/mL, 1 hour, with NADPH
Protocol: Compound P-113 cyclized peptide was metabolically reacted at a concentration of 10 uM with a microsome solution prepared at 0.5 mg protein/mL from mouse liver (male, manufactured by XENOTECH, USA) using 100 mM phosphate buffer (pH 7.4) for 1 hour in the presence of NADPH (FIG. 35). After the reaction, deproteinization treatment with acetonitrile was provided, and the resulting metabolites were analyzed with a high resolution LC/MS instrument (Q-TOF Ultima API, manufactured by Waters Corporation, USA). Mass chromatograms of the metabolites are shown below. […] MS/MS spectra of the peaks are shown below, respectively. The metabolites of Peak 1 and Peak 2 were assumed to be hydroxylated in the partial structures containing highly lipophilic side chain cyclohexyl groups. […] The metabolite of Peak 4 was assumed to have a thiol-containing site oxidized. Taking the ease of oxidation of this site into consideration, it was believed that the sulfur atom is likely to be the metabolic site.

[7] = target: T1, soluble human IL-6R (IL-6R) (Homo sapiens, UniProt P08887); test: IL-6/IL-6R interaction by electrochemiluminescence immunoassay (protein denaturation by desulfurization solution); format: binding; conditions: 25 mM HEPES-K pH 7.6, 200 mM TCEP, 250 mM VA-044, 10 mM Cys, room temperature, 50 minutes
T1 sequence (P08887 20-355 limits assumed): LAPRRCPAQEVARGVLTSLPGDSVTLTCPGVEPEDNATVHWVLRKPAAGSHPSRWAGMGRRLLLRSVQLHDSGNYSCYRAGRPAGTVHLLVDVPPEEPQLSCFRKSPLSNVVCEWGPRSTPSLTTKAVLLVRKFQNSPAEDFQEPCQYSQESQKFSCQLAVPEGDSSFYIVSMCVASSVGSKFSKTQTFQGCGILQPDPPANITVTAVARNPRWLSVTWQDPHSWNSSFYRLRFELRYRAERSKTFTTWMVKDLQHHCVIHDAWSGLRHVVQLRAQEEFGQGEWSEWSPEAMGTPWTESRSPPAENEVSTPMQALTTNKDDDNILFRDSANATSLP
Protocol: Protein denaturation by a desulfurization reaction solution was evaluated (FIG. 34). As a model system, the effect of the desulfurization reaction condition on IL-6R was evaluated by detecting interaction between IL-6 and IL-6R using electrochemiluminescence immunoassay. First, 750 ng of anti-IL-6R antibody clone No. 17506 (R&D biosystems) was applied to a MSD Multi-array 384-well plate (MSD) and incubated at 4° C. overnight so that the antibody was immobilized on to the plate. The plate was washed with 80 μl of PBST three times to remove the unbound antibody, and blocking was then carried out with 2% skimmed milk for 1 hour. The blocking agent was washed away from the plate with 80 μl of PBST three times, after which 10 μl of 25 nM soluble human IL-6R (IL-6R) was added and the plate was shaken at room temperature for 50 minutes. The plate was washed with 80 μl of PBST three times, a desulfurization reaction solution (25 mM HEPES-K (pH 7.6), 200 mM TCEP, 250 mM VA-044 and 10 mM Cys) was added and the plate was shaken at room temperature for 50 minutes. The plate was washed with 80 μl of PBST three times, 10 μl of human IL-6-BAP (500 nM) was added and the plate was shaken at room temperature for 50 minutes. […] The plate was washed with 80 μl of PBST three times, and 35 μl of 2× read buffer (MSD, R92SC-3) was added, followed by measurement with SECTOR Imager 2400 (MSD) (FIG. 34).

[8] = 0.5 mg protein/mL, 1 uM, 30 minutes
[9] = mouse, 0.5 mg protein/mL, 1 uM, 30 minutes, with NADPH, read-out: Hepatic Microsome CLh, int (Mouse) In the presence of NADPH

Row | Molecule | half-life at 2 uM [1] [h] | Hepatic Microsome CLh, int (Mouse) In the absence of NADPH [2, 8] [ul/min/mg Protein] | Hepatic Microsome CLhint Mouse ([2]; Table 8, mouse) [ul/min/mg Protein] | microsomal CLint at 1 uM [2, 9] [µL/min/mg] | Intestinal Microsome CLg, int Mouse [3] [ul/min/mg Protein] | Hepatic microsome CLhint (Human) In the absence of NADPH [4] [ul/min/mg Protein] | Hepatic microsome CLhint (Human) In the presence of NADPH [4] [ul/min/mg Protein] | microsomal CLint at 1 uM [4] [µL/min/mg] | other results
1 | CC(C)C[C@H]1C(=O)N[C@@H](COC(C)(C)C)C(=O)N[C@H](C(=O)N2CCCCC2)CSCC(=O)N(C)[C@@H](C)C(=O)N(C)[C@@H](Cc2ccccc2)C(=O)N(C)[C@@H](CC(C)C)C(=O)N[C@@H]([C@@H](C)O)C(=O)N(C)CC(=O)N1C [Compound P-102, Ac*-MeAla-MePhe-MeLeu-Thr-MeGly-MeLeu-Ser(tBu)-Cys*-piperidine] ({CH2CO}-[NMeA][NMeF][NMeL]T[Sar][NMeL]S(tBu)C-Piperidide; thioether N-8) | > 60 | 0 | 55.1 | 55.1 | 79.0 | 3 | 124 | 124 | 
2 | CC[C@H](C)[C@H]1C(=O)N[C@H](C(=O)N2CCCCC2)CSCC(=O)N(C)[C@@H](C)C(=O)N(C)[C@@H](Cc2ccccc2)C(=O)N(C)[C@@H](CC(C)C)C(=O)N[C@@H]([C@@H](C)O)C(=O)N(C)CC(=O)N(C)[C@@H](CC(C)C)C(=O)N[C@@H](COC(C)(C)C)C(=O)N1C [Compound P-109, Ac*-MeAla-MePhe-MeLeu-Thr-MeGly-MeLeu-Ser(tBu)-MeIle-Cys*-piperidine] ({CH2CO}-[NMeA][NMeF][NMeL]T[Sar][NMeL]S(tBu)[NMeI]C-Piperidide; thioether N-9) | > 60 | 10.3 | 57.4 | 57.4 | 45.8 | 11 | 158 | 158 | 
3 | 5′-AGCUUAGUCA-puromycin-3′ (3' {Puro}, sugars by position and backbone not given here) [Compound RP-1] |  |  |  |  |  |  |  |  | amount of remaining RNA compound under desulfurization reaction condition [5]: not changed
4 | CC[C@H](C)[C@H]1C(=O)NC(C(=O)N2CCCCC2)CSCC(=O)N(C)[C@@H](Cc2ccccc2)C(=O)N(C)[C@@H](C)C(=O)N(C)[C@@H](Cc2ccccc2)C(=O)N(C)[C@@H](CC(C)C)C(=O)N[C@@H]([C@@H](C)O)C(=O)N(C)CC(=O)N(C)[C@@H](CC(C)C)C(=O)N[C@@H](COC(C)(C)C)C(=O)N1C (stereo partly drawn) [Compound P-112, Ac*-MePhe-MeAla-MePhe-MeLeu-Thr-MeGly-MeLeu-Ser(tBu)-MeIle-Cys*-piperidine] ({CH2CO}-[NMeF][NMeA][NMeF][NMeL]T[Sar][NMeL]S(tBu)[NMeI][ξC]-Piperidide; thioether N-10) | > 60 | 17.9 | 30.4 | 30.4 | 25.9 |  |  | 118 | Mouse Hepatic Microsome CLh, int [2]: 30.4 ul/min/mg Protein
5 | CC(C)C[C@@H]1NC(=O)CSC[C@@H](C(=O)N[C@@H](CC2CCCCC2)C(=O)N2CCCCC2)NC(=O)[C@H](C)NC(=O)[C@H](C(C)O)NC(=O)[C@H]([C@@H](C)O)NC(=O)[C@H](CC2CCCCC2)NC(=O)[C@H](C)N(C)C1=O (stereo partly drawn) [Compound P-113, Ac*-Leu-MeAla-Cha-Thr-Thr-Ala-Cys*-Cha-piperidine] ({CH2CO}-L[NMeA][Cha]T[Thr(3ξ)]AC[Cha]-Piperidide; thioether N-7) |  |  |  |  |  |  |  |  | metabolites detected [6]: Four peaks corresponding to hydroxides
6 | CC[C@H](C)[C@H]1C(=O)N[C@H](C(=O)N2CCCCC2)C[S+]([O-])CC(=O)N(C)[C@@H](C)C(=O)N(C)[C@@H](Cc2ccccc2)C(=O)N(C)[C@@H](CC(C)C)C(=O)N[C@@H]([C@@H](C)O)C(=O)N(C)CC(=O)N(C)[C@@H](CC(C)C)C(=O)N[C@@H](COC(C)(C)C)C(=O)N1C (stereo partly drawn) [Compound P-114, (5S,8S,11S,14S,20S,23S,26S,29R)-8-benzyl-23-(tert-butoxymethyl)-26-((S)-sec-butyl)-14-((R)-1-hydroxyethyl)-11,20-diisobutyl-4,5,7,10,16,19,25-heptamethyl-29-(piperidine-1-carbonyl)-1-thia-4,7,10,13,16,19,22,25,28-nonaazacyclotriacontane-3,6,9,12,15,18,21,24,27-nonone 1-oxide] ([NMeA][NMeF][NMeL]T[Sar][NMeL]S(tBu)[NMeI][Cys(O)(CH2CO)]-Piperidide; lactam N-9) |  |  |  |  | 9.1 |  |  | 35.3 | oxidative metabolic rate relative to the parent thioether, mouse hepatic microsomes ([2]; compared with Compound P-112): 0.6 times; microsomal CLint at 1 uM ([2]; Table 8, mouse, read-out: Hepatic Microsome CLhint Mouse): 33.7 µL/min/mg; oxidative metabolic rate relative to the parent thioether, small intestinal microsomes ([3]; compared with Compound P-112): 0.2 times; oxidative metabolic rate relative to the parent thioether, human hepatic microsomes [4]: about 0.3 times
7 | CC[C@H](C)[C@H]1C(=O)N[C@H](C(=O)N2CCCCC2)CSCC(=O)N(C)[C@@H](Cc2ccccc2)C(=O)N(C)[C@@H](CC(C)C)C(=O)N[C@@H]([C@@H](C)O)C(=O)N(C)CC(=O)N(C)[C@@H](CC(C)C)C(=O)N[C@@H](COC(C)(C)C)C(=O)N1C [Compound P-103, Ac*-MePhe-MeLeu-Thr-MeGly-MeLeu-Ser(tBu)-MeIle-Cys*-piperidine] ({CH2CO}-[NMeF][NMeL]T[Sar][NMeL]S(tBu)[NMeI]C-Piperidide; thioether N-8) | > 60 | 11.1 | 63.0 | 63 | 66.3 | 3 | 221 | 221 | Mouse Hepatic Microsome CLh, int [2]: 63 ul/min/mg Protein
8 | OC1CSSCC1O (centres unmarked) [oxidized DTT] |  |  |  |  |  |  |  |  | effect on interaction between IL-6R and IL-6 [7]: restores the interaction between IL-6R and IL-6
